Measured values published in patent publication US20140343095A1, “Methods of Diagnosing and Treating Multiple Sclerosis” (The Brigham and Women's Hospital, Inc., priority 2009, published 2014).

Key:
TLR2 = assay: PARP-1 activity in HEK-293 cells transfected or not with TLR2; assay type: cell-based, human
From the text: FIGS. 6A-B are bar graphs showing that PARP-1 activation by 15-HC is mediated by TLR2 A. TLR2 blocking antibody abrogates PARP-1 activation by 15a-HC. 6A, a set of three bar graphs showing PARP-1 activity in microglia, macrophages or astrocytes activated with 15-HC in the presence of blocking antibodies to TLR2 or TLR4, or isotype controls (Mean±SEM). 6B, a bar graph showing PARP-1 activity in HEK-293 cells transfected or not with a plasmid coding for TLR2 and activated with 15-HC (Mean±SEM).

[1] = test system: TLR signaling proteins (TAK1, IRAK, Akt, p38-MAPK, PyK2, PKC, PI3K, ERK1/2); assay: Reverse protein arrays / western blot of signaling after 15-HC; assay type: cell-based, mouse; conditions: microglia or macrophage cells, 1 μg/ml 15-HC
Description: 5A, a bar graph showing the time course of microglial PARP-1 activation by 15-oxysterols or 7-KC. PARP-1 activity is shown as Mean±SEM. 5B, a set of eight bar graphs showing signaling pathways activated by 15-HC. Microglial cells were stimulated with 15-HC and lysed at 1, 5, and 15 minutes. Signal transduction arrays were made with the lysates and probed with phospho-specific antibodies. 15a-HC increases the phosphorylation of TAK1 (top right), IRAK (top left), Akt (second row, left), p38 MAPK (second row, right), Pyk2 (third row, left), PKC (third row, right), PI3K (bottom row, left), and Erk1/2 (bottom row, right). (Mean±SEM) 5C, a bar graph showing activation of microglial PARP-1 by 15-HC in the presence of kinase inhibitors (Mean±SEM). […]
FIG. 8 is a set of eight pairs of bolts and bar graphs showing blockade of 15-HC triggered signaling pathways with blocking antibodies to TLR2. Microglial cells were incubated with […] of TLR2 blocking antibody or isotype control 45 minutes prior the addition of 15-HC to the medium and signal transduction events were analyzed by western blot. […]
The C8B4 microglial cell line, C8-D1A astrocytes and Raw 264.7 macrophages were purchased from ATCC (Manassas, Va., USA). […] Slides were then probed, processed and analyzed as previously described (Chan et al., Nat Med 10, 1390-1396 (2004)).

PARP-1 [2] = target: PARP-1 (Homo sapiens, UniProt P09874); assay: PARP-1 activity in a cell-free system with oxysterol-pretreated DNA; assay type: biochemical
Description: (§1) FIGS. 4A-D show the results of activation of microglia, macrophages and astrocytes by 15-HC. 4A, a bar graph showing PARP-1 activity in a cell-free system where recombinant PARP-1 was incubated with DNA which as been pretreated with 15-HC or 7-KC. Non-pretreated DNA was used as a negative control and ssb-DNA as a positive control. Data is shown as Mean±SEM. 4B, a pair of bar graphs showing PARP-1 activity measured in microglia, macrophages or astrocytes incubated with 15-HC or 7-KC. The data is shown as the fold of change between vehicle and lipid-treated cells (Mean±SEM). 4C, a pair of bar graphs showing percent inhibition of PARP-1 activity in microglia, macrophages or astrocytes activated with 15-HC or 7-KC […] in the presence of 5-AIQ. 4D, a table showing levels of TNF-α, CCL-2 and NO secretion by 15-HC or 7-KC treated microglia, macrophages or astrocytes (Mean±SEM).
Thus, the effect of 15-HC on PARP-1 activity was investigated using an in vitro system.

[3] = test system: microglia, macrophages or astrocytes; assay: TNF-α, CCL-2 and NO secretion by microglia, macrophages or astrocytes; assay type: cell-based, mouse; conditions: microglia, macrophages or astrocytes incubated with 15-HC
Description: as §1
The effect of 15-HC on the activity of cellular PARP-1 was then investigated. […] Thus, 15-HC activates microglia, macrophages and astrocytes through a PARP-1-dependent mechanism.

human monocytes = assay: TNFa and CCL2 production by human monocytes; assay type: cell-based; conditions: 1 ug/ml 15-HC
Description: FIGS. 10A and 10B are bar graphs showing TLR2 mediated activation of PARP-1 by 15-HC. PARP-1 enzymatic activity (10A) and TNFalpha and CCL2 (10B) of PBMCs incubated with 15-HC alone, or in combination with AIQ, blocking antibodies to TLR2 or IC control.
To investigate whether the TLR2/PARP-1 axis is functional in human we activated PBMCs from healthy controls with 15-HC, in the presence or not of PARP-1 or TLR2 inhibitors. […] Thus, 15-HC activates PARP-1 in human monocytes by a TLR2 dependent pathway that results in the release of the pro-inflammatory mediators TNFa and CCL2.

PARP-1 [4] = target: PARP-1 (Mus musculus, UniProt P11103); assay: Cellular PARP-1 activity in microglia, macrophages or astrocytes; assay type: cell-based; parameters: host or cells: C8B4 microglia, C8-D1A astrocytes, Raw 264.7 macrophages
Chain of PARP-1 (Mus musculus, UniProt P11103) (P11103 whole entry): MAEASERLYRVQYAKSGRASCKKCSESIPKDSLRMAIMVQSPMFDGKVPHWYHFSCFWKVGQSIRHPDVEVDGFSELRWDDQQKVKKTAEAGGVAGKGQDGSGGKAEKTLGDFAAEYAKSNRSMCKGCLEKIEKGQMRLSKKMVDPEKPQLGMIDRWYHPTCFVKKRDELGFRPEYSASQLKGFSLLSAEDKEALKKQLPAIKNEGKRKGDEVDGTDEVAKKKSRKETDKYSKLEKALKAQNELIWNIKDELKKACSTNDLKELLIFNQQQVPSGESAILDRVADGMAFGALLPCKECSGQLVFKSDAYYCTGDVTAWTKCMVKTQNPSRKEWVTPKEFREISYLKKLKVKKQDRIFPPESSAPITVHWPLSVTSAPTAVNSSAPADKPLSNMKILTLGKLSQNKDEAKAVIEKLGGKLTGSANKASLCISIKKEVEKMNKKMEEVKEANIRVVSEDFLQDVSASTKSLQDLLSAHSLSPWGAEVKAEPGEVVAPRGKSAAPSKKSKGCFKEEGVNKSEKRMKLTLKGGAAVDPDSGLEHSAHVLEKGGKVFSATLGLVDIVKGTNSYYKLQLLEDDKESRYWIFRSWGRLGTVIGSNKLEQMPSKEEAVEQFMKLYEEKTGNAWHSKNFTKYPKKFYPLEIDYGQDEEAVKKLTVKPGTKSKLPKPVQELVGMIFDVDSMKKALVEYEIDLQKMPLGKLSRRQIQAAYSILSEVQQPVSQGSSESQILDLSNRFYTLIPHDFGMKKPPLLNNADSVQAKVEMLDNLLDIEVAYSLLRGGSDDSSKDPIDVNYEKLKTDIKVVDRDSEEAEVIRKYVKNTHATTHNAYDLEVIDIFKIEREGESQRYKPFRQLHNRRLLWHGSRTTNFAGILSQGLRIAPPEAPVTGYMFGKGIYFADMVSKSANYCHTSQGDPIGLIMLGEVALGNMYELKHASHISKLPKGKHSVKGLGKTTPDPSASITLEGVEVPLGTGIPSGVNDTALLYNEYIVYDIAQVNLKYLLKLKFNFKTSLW
Description: 5A, a bar graph showing the time course of microglial PARP-1 activation by 15-oxysterols or 7-KC. PARP-1 activity is shown as Mean±SEM. […] (Mean±SEM) 5C, a bar graph showing activation of microglial PARP-1 by 15-HC in the presence of kinase inhibitors (Mean±SEM).
PARP-1 activity was measured using PARP HT Universal Colorimetric Kit (Trevigen, MD, USA), following manufacturer instructions.
Cells were cultured with DMEM supplemented with 10% fetal bovine serum, 2 mM L-glutamine, 25 mM HEPES, and 1 mM sodium pyruvate. Cells in logarithmic growth were treated with 1 μg/ml of 15-HC for 1, 5, 15, and 30 minutes in serum-free medium. Blocking antibodies (Ebioscience, San Diego, Calif., USA) were added in some experiments at a final concentration of 10 ug/ml.

Chain of PARP-1 (Homo sapiens, UniProt P09874) (P09874 whole entry, species assumed): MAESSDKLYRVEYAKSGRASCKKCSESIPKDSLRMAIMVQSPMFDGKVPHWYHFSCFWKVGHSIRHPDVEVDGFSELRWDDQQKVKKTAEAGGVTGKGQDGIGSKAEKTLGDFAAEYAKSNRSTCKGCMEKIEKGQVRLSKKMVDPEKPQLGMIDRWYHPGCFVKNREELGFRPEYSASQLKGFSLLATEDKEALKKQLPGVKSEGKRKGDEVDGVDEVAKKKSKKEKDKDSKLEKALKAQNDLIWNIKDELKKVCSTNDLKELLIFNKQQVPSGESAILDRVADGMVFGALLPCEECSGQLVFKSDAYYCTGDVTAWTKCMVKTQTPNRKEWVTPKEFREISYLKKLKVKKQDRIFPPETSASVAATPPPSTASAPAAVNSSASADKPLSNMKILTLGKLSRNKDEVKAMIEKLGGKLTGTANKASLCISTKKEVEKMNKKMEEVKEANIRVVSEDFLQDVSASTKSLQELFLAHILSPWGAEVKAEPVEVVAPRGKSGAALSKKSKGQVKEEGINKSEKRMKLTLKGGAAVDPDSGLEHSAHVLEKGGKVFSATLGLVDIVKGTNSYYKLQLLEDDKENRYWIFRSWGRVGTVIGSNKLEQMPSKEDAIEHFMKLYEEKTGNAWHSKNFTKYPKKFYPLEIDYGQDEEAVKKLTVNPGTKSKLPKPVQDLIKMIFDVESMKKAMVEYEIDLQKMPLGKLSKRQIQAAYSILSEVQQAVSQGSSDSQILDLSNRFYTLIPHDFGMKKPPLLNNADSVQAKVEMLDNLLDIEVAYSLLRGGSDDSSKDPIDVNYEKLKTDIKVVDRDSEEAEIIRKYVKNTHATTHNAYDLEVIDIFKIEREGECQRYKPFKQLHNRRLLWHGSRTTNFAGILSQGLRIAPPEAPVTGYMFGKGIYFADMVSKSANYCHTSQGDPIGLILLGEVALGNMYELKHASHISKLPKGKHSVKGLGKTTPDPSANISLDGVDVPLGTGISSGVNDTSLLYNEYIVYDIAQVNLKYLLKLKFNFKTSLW

## 15-hydroxycholestene [15-HC]
TLR2; transfected with a plasmid coding for TLR2
  PARP-1 activity in HEK-293 cells transfected with TLR2: significant activation
TLR2; untransfected, does not express TLR2
  PARP-1 activity in HEK-293 cells: no significant effect
[1]
  phosphorylation of TAK1, IRAK, Akt, p38-MAPK, PyK2, PKC, PI3K and ERK1/2: resulted in the phosphorylation
PARP-1 [2]; recombinant PARP-1 incubated with 15-HC alone
  PARP-1 activity, oxysterol alone: did not have a significant effect
PARP-1 [2]; recombinant PARP-1 plus DNA pretreated with 15-HC
  PARP-1 activity, DNA pre-incubated with oxysterol: levels comparable to those achieved with 7-KC or single strand break DNA
[3]
  secretion of NO, CCL-2 and TNF-α: resulted in the secretion
Human monocytes
  production of TNFa and CCL2: resulted in production
PARP-1 [4]; macrophages or microglia
  incubation time resulting in activation of PARP-1: 5 min
PARP-1 [4]; macrophages, microglia or astrocytes
  activation of cellular PARP-1: dose-dependent activation
